Test [1] deals with R rhodochrous K22 nitrilase. The settings on record: literature value; read-out: Km for acrylonitrile; cited from earlier work.
For test [2], the system named is nitrilase enzyme discussed in Biotech and Appl Biochem 11, 581 to 601 (1989). The settings on record: literature value; read-out: Km for acrylonitrile; cited from earlier work.
The subject of test [3] is nitrilase, a preferred enzyme on which initial experiments were conducted (particularly preferred enzyme: Rhodococcus rhodochrous NCIMB 40757). The test can be described thus: Km, Ki of preferred nitrilase in whole cell form (Michaelis-Menten kinetics). It is filed as biochemical. How it is done:
The enzyme must have Km for (meth) acrylonitrile, that is whichever of acrylonitrile and (meth) acrylonitrile is being converted, below 500 μm and Ki for ammonium acrylate or ammonium (meth) acrylate, whichever is being produced, above 100,000 μM. In this specification Km and Ki are measured under conditions in which the enzyme obeys Michaelis-Menten kinetics, in particular at pH 7. A preferred measurement technique uses enzyme in whole cell form in 50 mM sodium phosphate buffer at pH 7 and 30° C. and using concentrations of acrylonitrile from 0.01 to 0.5 mM (for Km) and using 1.2 M ammonium acrylate and 0.079 to 0.554 mM acrylonitrile (for Ki).

Structures are written as SMILES.

As to `C=CC#N` [acrylonitrile], the Km was 1140 µM in test [1]; 17000 µM in test [2]; 30.6 µM in test [3] (whole cell form, preferred technique: 50 mM sodium phosphate buffer, pH 7, 30° C., acrylonitrile 0.01 to 0.5 mM).

`C=CC(=O)O` [ammonium acrylate]: the “ratio Ki/Km” value in test [3] (Ki for ammonium acrylate / Km for acrylonitrile) is listed as “greater than 10,000”.

The values are drawn from patent US6361981B1, “Production of ammonium acrylate” (Ciba Specialty Chemicals Water Treatments Limited, priority 1995, dated 2002).
